This is an account of results in publication PMC5898002, “Overexpression of a type III PKS gene affording novel violapyrones with enhanced anti-influenza A virus activity” (Microbial Cell Factories, 2018).

For series [1], the system named is MDCK cells. As to conditions: dog, 48 h.
Series [2] in a line: in vitro. As to conditions: dog, CC50: concentration required to reduce MDCK cell viability by 50%.
Series [3] relates to influenza virus A/PR8/34 (H1N1). The experiment in a line: microbe, parasite or virus in culture. Conditions: MDCK cells, MOI = 1.0 (table footnote), 48 h post-infection, mean of n = 4, read-out: IC50: concentration required to inhibit influenza virus A/PR8/34 (H1N1) yield at 48 h post-infection by 50%. The series is classed as cell-based.
Series [4] can be described thus: cytotoxicity in MDCK cell by MTT assay. Conditions: dog, MDCK cells, CC50: concentration required to reduce MDCK cell viability by 50%, mean of n = 3. Background: Tetrazolium dyes change colour on reduction, which living cells bring about.

One may read the CC50 as the concentration at which the toxic effect on the cells reaches its halfway point. A high value points to better tolerance by the cells. In series [1], `Cc1c(O)cc(CCCCC(C)C)oc1=O` [Compound 10, Violapyrone B] yielded a CC50 above 1500 µM. The same compound came in with a CC50 at 48 h in series [2] above 1400 µM. The IC50 in series [3] is above 200 µM.
The compound `CCCCCCCc1cc(O)c(C)c(=O)o1` [Compound 11, VLP I] registered a CC50 at 48 h in series [4] of 2200 µM. Moreover, the IC50 in series [3] came to 113 µM.
On to `CCc1c(O)cc(CCCCC(C)C)oc1=O` [Compound 12, VLP P], for which the 50% cytotoxic concentration (CC50) at 48 h in series [4] is 1570 µM. For the same compound, the IC50 in series [3] turned out to be 26.9 µM.
Turning to `CCC(C)CCCCc1cc(O)c(C)c(=O)o1` (stereo not shown) [Compound 13, VLP C], the half-maximal cytotoxic concentration (CC50) at 48 h in series [4] was 1620 µM. Also, in series [3], the IC50 is 107 µM.
The compound `Cc1c(O)cc(CCCCCC(C)C)oc1=O` [Compound 14, VLP H] gave a CC50 at 48 h in series [4] of 1450 µM. In addition, in series [3], the IC50 is 28.8 µM.
Consider `NC(=O)c1ncn([C@@H]2O[C@H](CO)[C@@H](O)[C@H]2O)n1` [Ribavirin, reference compound], for which the CC50 at 48 h in series [4] was 1520 µM. Also, in series [3], the IC50 worked out at 113 µM.
